Test results reported in publication PMC11862990, “Utility of 6-aza-2-thiothymine in the synthesis of novel [1,2,4]triazolo[4,3-b][1,2,4]triazin-7-one derivatives: synthesis, structure elucidation, molecular docking and in vitro anti-lung cancer activity” (RSC Advances, 2025).
Values joined by “and” are separate entries in the source; they are usually repeats but may differ in a detail not shown here. Equal entries are not always repeated.

Experiments:
[1] = system: PC3 (prostate cell line); test: MTT cytotoxicity assay, PC3; assay type: cell-based; settings: Homo sapiens, 100 μg ml^−1, 48 hours, MTT, read-out: (%) Mortality PC3
Method: (§1) Using specific human cancer cell lines, the anti-proliferative effectiveness of compounds 7a–j was evaluated in an in vitro assay. The anti-cancer activity of these compounds (7a–j) on various cancer cell lines, including PC3 (Prostate cell line), A549 (Lung carcinoma), PACA2 (Pancreatic cancer cell line) and BJ1 (normal skin fibroblast), was investigated in this study using the 3-(4,5-dimethylthiazol-2-yl)-2,5-diphenyltetrazolium bromide (MTT) test. Doxorubicin (Dox) was the standard medication used as a positive control.
(§2) All incubations were performed at 37 °C in a 5% CO2 incubator with a 95% humidified environment (Sheldon, TC2323; Cornelius, OR, USA). 96-well micro titer polypropylene plates were seeded with cells at a density of 10^4 cells per well in complete DMEM media, and the cells were allowed to adhere for 24 hours. After the media was aspirated, the tested compounds were added to the cells in a single dose of 100 μg ml^−1 in DMSO. Each well received 40 μl of MTT salt (2.5 g ml^−1) following a 48 hour incubation period. 200 μl of 10% sodium dodecyl sulfate (SDS) was added to each well after the reaction ended, and any formazan crystals that could have been produced were dissolved by two hours of incubator heating to 37 °C. The amount of formazan product was measured at 595 nm using a microplate reader (Bio-Rad Laboratories, model 3350, California, USA) with a reference wavelength of 690 nm, serving as a backdrop. Rather than the drugs under investigation, the medium was applied to the untreated cells (negative control). The examined compounds were dissolved in dimethylsulfoxide (DMSO), and the final concentration in the cells was less than 0.2%. For each compound and the control, the solvent concentration was the same.

[2] = system: A549 (lung carcinoma); test: MTT cytotoxicity assay, A549; assay type: cell-based; settings: Homo sapiens, A549, MTT; for cytotoxicity at 100 µg/mL: 100 μg ml^−1, 48 hours, read-out: (%) Mortality A549
Method: as §1, §2

[3] = system: PACA2 (pancreatic cancer cell line); test: MTT cytotoxicity assay, PACA2; assay type: cell-based; settings: Homo sapiens, PaCa-2; 100 μg ml^−1, 48 hours, MTT; read-out: (%) Mortality PACA2
Method: as §1, §2

[4] = system: BJ1 (normal skin fibroblast); settings: 100 μg ml^−1, 48 hours, MTT
Method: Using specific human cancer cell lines, the anti-proliferative effectiveness of compounds 7a–j was evaluated in an in vitro assay. The anti-cancer activity of these compounds (7a–j) on various cancer cell lines, including PC3 (Prostate cell line), A549 (Lung carcinoma), PACA2 (Pancreatic cancer cell line) and BJ1 (normal skin fibroblast), was investigated in this study using the 3-(4,5-dimethylthiazol-2-yl)-2,5-diphenyltetrazolium bromide (MTT) test.
In the initial screening trial, a single dosage concentration of 100 μg ml^−1 was applied for 48 hours. The cytotoxicity of the treated cells was determined by calculating the cell death percentage (% mortality) as a percentage of untreated cells (Table 2).
Cell viability was tested using the MTT assay, 3-(4,5-dimethylthiazol-2-yl)-2,5-diphenyl-tetrazolium bromide (Bio Basic Canada Inc. Toronto, Canada).[26] Under class II biosafety regulations, the procedures were carried out in a sterile laminar air flow cabinet (Baker, SG403INT; Sanford, ME, USA). Cell lines were obtained from the American type culture collection (ATCC) as a gift from Dr Stig Linder, Karonisca Institute, Sweden. All incubations were performed at 37 °C in a 5% CO2 incubator with a 95% humidified environment (Sheldon, TC2323; Cornelius, OR, USA). 96-well micro titer polypropylene plates were seeded with cells at a density of 10^4 cells per well in complete DMEM media, and the cells were allowed to adhere for 24 hours. After the media was aspirated, the tested compounds were added to the cells in a single dose of 100 μg ml^−1 in DMSO. Each well received 40 μl of MTT salt ([…]) following a 48 hour incubation period. 200 μl of 10% sodium dodecyl sulfate (SDS) was added to each well after the reaction ended, and any formazan crystals that could have been produced were dissolved by two hours of incubator heating to 37 °C. The amount of formazan product was measured at 595 nm using a microplate reader (Bio-Rad Laboratories, model 3350, California, USA) with a reference wavelength of 690 nm, serving as a backdrop. Rather than the drugs under investigation, the medium was applied to the untreated cells (negative control). The examined compounds were dissolved in dimethylsulfoxide (DMSO), and the final concentration in the cells was less than 0.2%. For each compound and the control, the solvent concentration was the same.

SMILES	cytotoxicity at 100 µg/mL [1] [%]	cytotoxicity at 100 µg/mL [2] [%]	IC50 ([2]; 48 hour incubation) [µM]	cytotoxicity at 100 µg/mL [3] [%]	(%) Mortality BJ1 (cytotoxicity percentage on normal cells) [4]
Cc1nn2c(CC(C)C)nn(-c3ccc([N+](=O)[O-])cc3)c2nc1=O [Compound 7e, 3-Isobutyl-6-methyl-1-(4-nitrophenyl)-[1,2,4]triazolo[4,3-b][1,2,4]triazin-7(1H)-one]	35.1 ± 1.11	86.3 ± 0.74	42.5	8.6 ± 0.33	6.4% and 6.4 ± 0.85%
Cc1nn2c(C(C)C)nn(-c3ccc([N+](=O)[O-])cc3)c2nc1=O [Compound 7d, 3-Isopropyl-6-methyl-1-(4-nitrophenyl)-[1,2,4]triazolo[4,3-b][1,2,4]triazin-7(1H)-one]	17.9 ± 0.38	33.3 ± 0.22	–	11.5 ± 0.25	36.2 ± 1.11%
Cc1ccc(-c2nn(-c3ccccc3)c3nc(=O)c(C)nn23)cc1 [Compound 7f, 6-Methyl-1-phenyl-3-(p-tolyl)-[1,2,4]triazolo[4,3-b][1,2,4]triazin-7(1H)-one]	33.4 ± 1.18	69.1 ± 0.77	–	5.6 ± 0.11	3.2% and 3.2 ± 0.63%
Cc1nn2c(-c3cccs3)nn(-c3ccc([N+](=O)[O-])cc3)c2nc1=O [Compound 7j, 6-Methyl-1-(4-nitrophenyl)-3-(thiophen-2-yl)-[1,2,4]triazolo[4,3-b][1,2,4]triazin-7(1H)-one]	15.9 ± 0.51	32.8 ± 0.54	–	7.2 ± 0.88	3.8 ± 0.77%
Cc1nn2c(-c3ccco3)nn(-c3ccc([N+](=O)[O-])cc3)c2nc1=O [Compound 7i, 3-(Furan-2-yl)-6-methyl-1-(4-nitrophenyl)-[1,2,4]triazolo[4,3-b][1,2,4]triazin-7(1H)-one]	18.4 ± 1.14	14.2 ± 0.24	–	9.6 ± 1.33	2.9 ± 1.22%
Cc1nn2c(-c3ccc(Cl)cc3)nn(-c3ccccc3)c2nc1=O [Compound 7h, 3-(4-Chlorophenyl)-6-methyl-1-phenyl-[1,2,4]triazolo[4,3-b][1,2,4]triazin-7(1H)-one]	24.2 ± 0.21	13.5 ± 0.33	–	21.3 ± 0.98	9.6 ± 0.93%
CCc1nn(-c2ccc([N+](=O)[O-])cc2)c2nc(=O)c(C)nn12 [Compound 7b, 3-Ethyl-6-methyl-1-(4-nitrophenyl)-[1,2,4]triazolo[4,3-b][1,2,4]triazin-7(1H)-one]	24.5 ± 0.57	35.2 ± 1.22	–	3.6 ± 0.21	4.2 ± 0.98%
CCCc1nn(-c2ccc([N+](=O)[O-])cc2)c2nc(=O)c(C)nn12 [Compound 7c, 6-Methyl-1-(4-nitrophenyl)-3-propyl-[1,2,4]triazolo[4,3-b][1,2,4]triazin-7(1H)-one]	27.3 ± 1.2	22.9 ± 0.81	–	10.5 ± 0.61	1.6 ± 0.38%
